The structures appear in SMILES notation. pIC50: −log10 of the molar value.

Chain of NLRP3 inflammasome (Q96P20 whole entry): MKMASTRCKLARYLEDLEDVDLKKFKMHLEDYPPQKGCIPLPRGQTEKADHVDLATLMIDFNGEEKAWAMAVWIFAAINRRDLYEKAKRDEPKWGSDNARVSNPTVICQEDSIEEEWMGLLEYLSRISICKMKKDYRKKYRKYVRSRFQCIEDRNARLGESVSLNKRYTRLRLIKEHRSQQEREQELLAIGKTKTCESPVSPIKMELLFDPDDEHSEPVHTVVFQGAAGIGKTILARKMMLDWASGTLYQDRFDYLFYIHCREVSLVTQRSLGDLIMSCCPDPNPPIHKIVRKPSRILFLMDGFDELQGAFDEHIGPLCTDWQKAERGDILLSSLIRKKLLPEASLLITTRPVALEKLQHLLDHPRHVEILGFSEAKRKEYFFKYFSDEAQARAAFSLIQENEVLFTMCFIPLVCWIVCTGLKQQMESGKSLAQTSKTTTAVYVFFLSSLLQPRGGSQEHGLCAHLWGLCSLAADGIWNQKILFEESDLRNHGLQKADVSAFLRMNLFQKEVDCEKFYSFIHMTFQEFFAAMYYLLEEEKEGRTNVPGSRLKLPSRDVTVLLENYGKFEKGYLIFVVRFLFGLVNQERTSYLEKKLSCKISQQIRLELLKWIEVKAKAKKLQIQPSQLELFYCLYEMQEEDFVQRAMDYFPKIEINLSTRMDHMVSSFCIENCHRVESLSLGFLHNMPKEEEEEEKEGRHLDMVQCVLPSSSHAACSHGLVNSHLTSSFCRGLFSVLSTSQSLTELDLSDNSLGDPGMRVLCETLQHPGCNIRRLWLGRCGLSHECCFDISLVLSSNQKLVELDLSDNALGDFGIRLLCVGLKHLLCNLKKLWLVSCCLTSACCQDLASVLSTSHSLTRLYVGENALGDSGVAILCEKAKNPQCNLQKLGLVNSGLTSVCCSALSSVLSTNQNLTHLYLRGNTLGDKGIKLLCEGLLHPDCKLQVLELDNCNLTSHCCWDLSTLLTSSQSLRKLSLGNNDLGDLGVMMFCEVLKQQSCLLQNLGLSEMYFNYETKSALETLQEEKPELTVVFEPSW

The first experiment has as its target NLRP3 inflammasome (Homo sapiens (Human), UniProt Q96P20). Description: Evaluation of NLRP3 inflammasome inhibitory activity (inhibition of IL-1β production in LPS/Nigericin-stimulated THP1-Null cells). The following applies: IL-1β production in THP1-Null cells, PMA, LPS 1 μg/mL, Nigericin 7.5 μmol/L, AlphaLISA. The format is cell-based. As for the experimental part:
The NLRP3 inflammasome inhibitory activity of test compounds were evaluated on the basis of the inhibitory activity of the IL-1β production in THP1-Null cells (Product Number: thp-null, InvivoGen). […] The supernatant of the culture was removed, and thereto was added media for assay (25 μL/well) containing 1 μg/mL Lipopolysaccharides (Product Number: L2654, Sigma-Aldrich (registered trademark)). […] The supernatant of the culture was removed. […] A solution containing a test compound (20 μL/well) was added to test compound-setting wells. […] The supernatant of the culture was cryonically stored (set at −20° C.) until measurement of IL-1β.
The amount of IL-1β in the culture supernatant was quantitated with AlphaLISA(registered trademark) Human IL-1β Detection Kit (Product Number: AL220C, Perkin Elmer). Fluorescence intensity was measured with a microplate reader EnSpier (Model number: 2300-00J, Perkin Elmer) or EnSight(Model number: HH34000000, Perkin Elmer) according to procedure manuals attached thereto. Inhibition rates of the test compound-setting wells were calculated on the basis of 100% for the blank-setting wells and 0% for the control-setting wells.
For orientation: Bead proximity is the source of the signal in Alpha formats.
Take `C#Cc1ccc(-n2cc3c(=O)[nH]c(N4CCCC4)nc3n2)c(C)c1` [Example 119]: the negative-log IC50 (pIC50) is 7.80.
Take `Cc1cc(C(C)(F)F)cc(C)c1-n1cc2c(=O)[nH]c(N3CCOCCO3)nc2n1` [Example 351]: the pIC50 is 7.13. Compared with the last molecule, the pIC50 is 0.67 log units lower.
The molecule `Cc1cc(Br)cc(C)c1-n1cc2c(=O)[nH]c(N3CC4CCC(C3)O4)nc2n1` [Example 278] showed a pIC50 of 8.10.
In turn, `Cc1cc(OC(F)F)cc(C)c1-n1cc2c(=O)[nH]c(N3CCOCC3)nc2n1` [Example 298, 2-(4-(difluoromethoxy)-2,6-dimethylphenyl)-6-morpholino-2,5-dihydro-4H-pyrazolo[3,4-d]pyrimidin-4-one] showed a negative logarithm of the IC50 (pIC50) of 7.57.
The molecule `COCc1cc(Cl)ccc1-n1cc2c(=O)[nH]c(N3CCOCC3)nc2n1` [Example 143] gave a negative-log IC50 (pIC50) of 7.23.
For `O=c1[nH]c(N2CCOCCO2)nc2nn(-c3ccc(Br)cc3C(F)(F)F)cc12` [Example 355], the negative logarithm of the IC50 (pIC50) was 7.37.
As for `O=c1[nH]c(N2CCCC2)nc2nn(-c3ccc(Cl)cc3C(F)(F)F)cc12` [Example 218], the pIC50 was 8.24.
Take `Cc1cc(C2CC2)cc(C)c1-n1cc2c(=O)[nH]c(N3C[C@H]4C[C@@H]3CO4)nc2n1` [Example 209, 6-((1R,4R)-2-oxa-5-azabicyclo[2.2.1]heptan-5-yl)-2-(4-cyclopropyl-2,6-dimethylphenyl)-2,5-dihydro-4H-pyrazolo[3,4-d]pyrimidin-4-one]: the pIC50 was 8.29. The pIC50 values of the last two molecules are within 0.2 log units of each other.
On the same count and under the same terms, the value for `Cc1cc(C2CC2)cc(C)c1-n1cc2c(=O)[nH]c(N3CCCCO3)nc2n1` [Example 333] was 7.31; that for `Cc1ccccc1-n1cc2c(=O)[nH]c(N3CCC3(C)C)nc2n1` [Example 39] was 5.15; that for `Cc1cc(Cl)ccc1-n1cc2c(=O)[nH]c(N3CCOCC3)nc2n1` [Example 164] was 7.54.
The molecule `C=C(c1cc(C)c(-n2cc3c(=O)[nH]c(N4CCOCC4)nc3n2)c(C)c1)C(F)(F)F` [Example 293] showed a pIC50 of 6.54.
Still for that read-out and setting: under `Cc1c(Cl)ccc(-n2cc3c(=O)[nH]c(N4CCOCC4)nc3n2)c1C` [Example 282] stands 6.74; under `Cc1cc(C(F)(F)F)cnc1-n1cc2c(=O)[nH]c(N3CC(F)(F)C3)nc2n1` [Example 123], 6.85.
Consider `O=c1[nH]c(N2CCCC2)nc2nn(-c3ccc(C(F)(F)F)cc3Cl)cc12` [Example 86], for which the pIC50 is 8.54. This pIC50 is 1.69 log units higher than that of the molecule before.
`CC(=O)NC1CCN(c2nc3nn(-c4c(C)cc(C)cc4C)cc3c(=O)[nH]2)C1` (racemic) [Example 111] showed a negative-log IC50 (pIC50) of 7.25.
In turn, `Cc1cc(C2CC2)cc(C)c1-n1cc2c(=O)[nH]c(N3CCOCC3)nc2n1` [Example 124] showed a negative-log IC50 (pIC50) of 8.52.
On the same count and under the same terms, the value for `Cc1cc(C2CC2)cc(Cl)c1-n1cc2c(=O)[nH]c(N3CC4CC(C3)O4)nc2n1` [Example 297] was 8.00; that for `COCc1cc(Cl)ccc1-n1cc2c(=O)[nH]c(N3CC(F)(F)C3)nc2n1` [Example 161] was 7.66; that for `Cc1cccc(C)c1-n1cc2c(=O)[nH]c(N3CCCC3)nc2n1` [Example 11] was 6.70.
In turn, `Cc1cc(Br)cc(C)c1-n1cc2c(=O)[nH]c(N3CCCO3)nc2n1` [Example 308] had a pIC50 of 6.77.
Molecule `Cc1cc(Br)ccc1-n1cc2c(OCC#N)nc(N3CCOCC3)nc2n1` [Example 156] gave a negative-log IC50 (pIC50) of 6.54.
The molecule `Cc1cc(Br)cc(C)c1-n1cc2c(=O)[nH]c(N3C[C@H]4C[C@@H]3CO4)nc2n1` [Example 197] showed a pIC50 of 8.10.
`Nc1cc(C(F)(F)F)cc(Cl)c1-n1cc2c(=O)[nH]c(N3CCOCC3)nc2n1` [Example 271] had a pIC50 of 7.70.
Still for that read-out and setting: under `Cc1cc(C(F)F)cc(C)c1-n1cc2c(=O)[nH]c(N3C[C@H]4C[C@@H]3CO4)nc2n1` [Example 330] stands 7.10.
For `Cc1cc(C2CC2)ccc1-n1cc2c(=O)[nH]c(N3CCCC3)nc2n1` [Example 82], the pIC50 is 8.39.
As for `COC1CN(c2nc3nn(-c4ccc(C)cc4C)cc3c(=O)[nH]2)C1` [Example 59], the pIC50 is 6.43. This pIC50 is 1.96 log units lower than that of the molecule before.
Molecule `Cc1cc(Cl)cc(C(C)C)c1-n1cc2c(=O)[nH]c(N3CCOCC3)nc2n1` (racemic) [Example 188] showed a negative-log IC50 (pIC50) of 7.05.
`CNC(=O)C1CCN(c2nc3nn(-c4c(C)cc(C)cc4C)cc3c(=O)[nH]2)C1` (racemic) [Example 110] had a pIC50 of 7.10. The pIC50 values of the last two molecules are within 0.2 log units of each other.
`Cc1cc(C2CC2)cc(C)c1-n1cc2c(=O)[nH]c(N3CCC(C#N)C3)nc2n1` (racemic) [Example 324] gave a negative-log IC50 (pIC50) of 8.21.
The same measure, in the same setting: under `C[C@@H]1COCCN1c1nc2nn(-c3ccc(C4CC4)cc3C(F)(F)F)cc2c(=O)[nH]1` [Example 261] stands 8.26.
Molecule `Cc1cc(C2CC2)cc(C)c1-n1cc2c(=O)[nH]c(N3CC4CC(C3)O4)nc2n1` [Example 232] had a pIC50 of 8.22.
Consider `Cc1ccc(C)c(-n2cc3c(=O)[nH]c(N4CCCC4)nc3n2)c1` [Example 46], for which the negative logarithm of the IC50 (pIC50) was 6.54.
On to `CCc1ccc(-n2cc3c(=O)[nH]c(N4CCCC4)nc3n2)c(C)c1` [Example 120], for which the pIC50 was 7.72.
In turn, `Cc1cc(Br)cc(C)c1-n1cc2c(=O)[nH]c(N(C)C(C)C)nc2n1` [Example 291] gave a pIC50 of 7.80.
Consider `COCCOc1nc(N2CCOCC2)nc2nn(-c3ccc(Br)cc3C)cc12` [Example 154], for which the negative-log IC50 (pIC50) was 6.23. Against the preceding molecule, the pIC50 is 1.57 log units lower.
On the same count and under the same terms, the value for `Cc1ccc(-n2cc3c(=O)[nH]c(N4CCOCC4)nc3n2)c(C)c1` [Example 58] was 6.92; that for `Cc1cc(Br)cnc1-n1cc2c(=O)[nH]c(N3CCCC3)nc2n1` [Example 77] was 7.31; that for `CC(C)c1ccccc1-n1cc2c(=O)[nH]c(N3CCCC3)nc2n1` [Example 31] was 6.27.
Turning to `CC(=O)N1CCN(c2nc3nn(-c4ccc(Br)cc4C)cc3c(=O)[nH]2)CC1` [Example 73], the negative logarithm of the IC50 (pIC50) is 8.09. This pIC50 is 1.82 log units higher than that of the molecule before.
As for `C=C(C)c1ccc(-n2cc3c(=O)[nH]c(N4CCCC4)nc3n2)c(C)c1` [Example 81], the pIC50 is 7.96.
As for `CCOc1cc(Br)ccc1-n1cc2c(=O)[nH]c(N3CCOCC3)nc2n1` [Example 302], the pIC50 is 6.89.
The molecule `O=c1[nH]c(N2C[C@@H]3C[C@H]2CO3)nc2nn(-c3ccc(Br)cc3C(F)(F)F)cc12` [Example 260] gave a negative-log IC50 (pIC50) of 7.77.
The same measure, in the same setting: under `Cc1cccc(C)c1-n1cc2c(=O)[nH]c(N3CC(C(F)(F)F)C3)nc2n1` [Example 53] stands 6.12.
Molecule `COc1nc(N2CCN(S(C)(=O)=O)CC2)nc2nn(-c3ccc(Br)cc3C)cc12` [Example 137] showed a pIC50 of 6.77.
Same read-out and setting: the value for `Cc1cc(Br)cc(C)c1-n1cc2c(=O)[nH]c(N3CCOC4CC43)nc2n1` (racemic) [Example 289] was 8.00.
On the same count and under the same terms, under `Cc1cc(C)c(-n2cc3c(=O)[nH]c(N4CCC5(CC4)COC5)nc3n2)c(C)c1` [Example 118] stands 7.36.
As for `O=c1[nH]c(N2CCCOCC2)nc2nn(-c3ccc(C(F)(F)F)cc3Cl)cc12` [Example 129], the pIC50 is 7.46.
The molecule `O=c1[nH]c(N2CCOCC2)nc2nn(-c3ccc(Br)cc3C(F)F)cc12` [Example 243] showed a pIC50 of 7.17.
On the same count and under the same terms, the value for `Cc1cc(C)c(-n2cc3c(=O)[nH]c(N4CCNCC4)nc3n2)c(C)c1` [Example 102] was 6.89; that for `COC1CCCN(c2nc3nn(-c4c(C)cc(C)cc4C)cc3c(=O)[nH]2)C1` (racemic) [Example 108] was 6.70; that for `Cc1cc(Br)ccc1-n1cc2c(=O)[nH]c(N3CCS(=O)(=O)CC3)nc2n1` [Example 79] was 8.23.
For the molecule `Cc1cc(C(F)(F)F)cc(C)c1-n1cc2c(=O)[nH]c(N3CCOCC3)nc2n1` [Example 237], the negative logarithm of the IC50 (pIC50) is 7.64.
As to `O=c1[nH]c(N2CCCC2)nc2nn(-c3ccccc3OC(F)(F)F)cc12` [Example 9], the pIC50 is 5.92. This pIC50 lies 1.72 log units lower than the previous one.
In the case of `Cc1nn(C2CCCC2)c(C)c1-n1cc2c(=O)[nH]c(N3CCCC3)nc2n1` [Example 350], the pIC50 was 5.92.
In turn, `Cc1cc(Br)cc(C)c1-n1cc2c(=O)[nH]c(N3CCOCCO3)nc2n1` [Example 339] had a pIC50 of 7.43.
Regarding `CO[C@H]1CCN(c2nc3nn(-c4c(C)cc(Br)cc4C)cc3c(=O)[nH]2)C1` [Example 318], the negative-log IC50 (pIC50) was 7.49. The pIC50 values of the last two molecules are within 0.2 log units of each other.
Same read-out and setting: the value for `Cc1cc(Br)cc(C)c1-n1cc2c(=O)[nH]c(N3CCCC3)nc2n1` [Example 280] was 8.38.
Still for that read-out and setting: under `COC(c1cc(Br)ccc1-n1cc2c(=O)[nH]c(N3C[C@H]4C[C@@H]3CO4)nc2n1)C1CC1` (some centres unmarked) [Example 314] stands 5.96; under `Cc1cc(Br)ccc1-n1cc2c(=O)[nH]c(NCc3ccccc3)nc2n1` [Example 74], 7.60; under `COCC(=O)N1CC2CC1CN2c1nc2nn(-c3c(C)cc(Br)cc3C)cc2c(=O)[nH]1` (racemic) [Example 220], 7.64.
In turn, `Cc1cc(Br)cc(C)c1-n1cc2c(=O)[nH]c(N3CCCOCC3)nc2n1` [Example 145] gave a negative-log IC50 (pIC50) of 7.92.
`Cc1cc(Br)ccc1-n1cc2c(=O)n(C)c(N3CCN(S(C)(=O)=O)CC3)nc2n1` [Example 138] had a pIC50 of 6.85. This pIC50 lies 1.07 log units lower than the previous one.
Same read-out and setting: under `Cc1ccccc1-n1cc2c(=O)[nH]c(N3CCC3Cc3ccccc3)nc2n1` (racemic) [Example 38] stands 5.60.

Still in this experiment, the particulars now being: IL-1β production in THP1-Null cells; test compound 0.0024 μM.
Consider `Cc1cc(C2CC2)cc(C)c1-n1cc2c(=O)[nH]c(N3CCN(S(C)(=O)=O)CC3)nc2n1` [Example 125], for which the inhibition at 0.0024 µM stood at 52%.

Broadly, the pIC50 is the negative decadic logarithm of the IC50, by convention in mol/L. For orientation: inhibition means the share of the control response that was lost under treatment. A higher inhibition goes with a response far below the control.

(Values after patent publication US20240287079A1, “6-AMINOPYRAZOLOPYRIMIDINE COMPOUND AND PHARMACEUTICAL USE THEREOF” (Japan Tobacco Inc., priority 2021, published 2024).)
